Measurements as given in patent publication US20230313199A1, “TARGET FOR MODULATING BODY MASS” (Massachusetts Institute of Technology, priority 2020, published 2023).

Assays:
[1] = tested on: 293T cells; assay: Oxygen consumption rate, parental 293T cells; assay type: cell-based, human; conditions: 40 μM heme for 1 hour
[2] = tested on: 4B8^FL cells; assay: MMP (JC-10 kit, flow cytometry) in 4B8 cells complemented with full length MFSD7C; assay type: cell-based, human; conditions: heme 1 hour
Protocol: FIGS. 4A-4H show NTD of MFSD7C mediates heme effect on mitochondrial respiration. FIGS. 4A-4C show comparison of basal OCR (FIG. 4A), maximal OCR (FIG. 4B) and ECAR (FIG. 4C) of THP-1, 4B8, and 4B8^FL and 4B8^ΔN cells treated with vehicle or heme for 1 hour (n=18 separate experiments). […] Cells were incubated with FPT for 6 hrs, washed and reseeded in poly-lysine coated glass bottom dishes. After cells attached to the glass, medium containing 40 μM heme was added. Cells in the same field were imaged immediately and again 1 hour later. Relative FPT fluorescent intensities, normalized to THP-1, from three experiments are shown. (n=3 independent experiments). […] THP-1 cells were co-cultured with 4B8, 4B8^FL, or 4B8^ΔN in FPT solution for 6 hrs, washed and reseeded in poly-lysine coated glass bottom dishes. Cells were imaged by confocal laser-scanning microscopy. […] Representative images from three experiments are shown. Scale bar: 10 μm. […] THP-1, 4B8, 4B8^FL and 4B8^ΔN cells were treated with vehicle or heme for 1 hour and MMP was measured by using JC-10 Mitochondrial Membrane Potential Assay Kit followed by flow cytometry. […] Shown are representative Western blotting data (FIG. 4G) and quantification of band intensities from n=3 independent experiments (FIG. 4H). P-values were calculated using two-way ANOVA (*p<0.05, **p<0.01, ***p<0.005). […]

For `C=CC1=C(C)c2cc3[n-]c(cc4[n-]c(cc5nc(cc1n2)C(C)=C5C=C)c(C)c4CCC(=O)O)c(CCC(=O)O)c3C.[Fe+2]` [heme], the OCR [1] was “significantly stimulated” and the MMP [2] was “decreased”.
